In PMC11078990, “Identification and characterization of small molecule inhibitors of the LINE-1 retrotransposon endonuclease” (Nature Communications, 2024):
Where “and” joins values, the source holds several entries; their conditions need not be identical. Equal entries are not always repeated. Entries after “also recorded” stand apart in the source; their conditions may differ. Where two headings read alike, the source gives them in different places.

How the values were obtained:
[1] = test system: L1 retrotransposition; assay: HeLa dual-luciferase L1 retrotransposition assay; assay type: cell-based, human; settings: for L1 retrotransposition, average: average of 4 replicates, Figure 4b; for Luciferase (retrotransposition), replicates: Replicates 1-4
[2] = test system: substrate oligonucleotide used in the EN activity assay; assay type: binding; design: key to Binding Detected? (Y/N): Binding Detected? (Y/N); Binding Detected? (Y/N)
[3] = target: L1 EN (LINE-1 retrotransposon endonuclease domain) (Homo sapiens, UniProt O00370, N5T); assay: Fluorescent oligonucleotide EN nicking activity assay; assay type: biochemical
L1 EN (LINE-1 retrotransposon endonuclease domain), sequence (O00370 1-239 N5T): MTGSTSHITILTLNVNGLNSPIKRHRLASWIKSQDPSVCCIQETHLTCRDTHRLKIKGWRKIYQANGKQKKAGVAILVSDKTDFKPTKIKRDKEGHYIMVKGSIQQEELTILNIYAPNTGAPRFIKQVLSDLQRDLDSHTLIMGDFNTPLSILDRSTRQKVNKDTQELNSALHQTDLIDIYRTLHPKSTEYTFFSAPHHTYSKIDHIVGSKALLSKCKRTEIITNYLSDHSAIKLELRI

[4] = target: EN (Homo sapiens, UniProt O00370, N5T); assay type: biochemical
EN, sequence (O00370 1-239 N5T): as above

[5] = target: T1, APE1 (Homo sapiens, UniProt P27695); assay: APE1 fluorescent oligonucleotide activity assay (abasic site substrate); assay type: biochemical; settings: for activity at 25 µM: inhibitors at 25 μM, relative to 0 μM inhibitor control, mean ± s.d., 3 independent experiments, read-out: APE1 activity (%)
T1 construct: purchased New England Biolabs (NEB) M0282S

[6] = target: T1, APE1; settings: read-out: Ki for APE1; cited from earlier work
[7] = test system: senescent LF1 human diploid fibroblasts (IL6, IL1β, CCL2, IFNα, MMP3); assay: RT-qPCR of inflammatory markers in replicatively senescent fibroblasts; assay type: cell-based
[8] = test system: HeLa Tet-On cells; settings: human, 48 h
[9] = test system: DNA fragmentation (comet tail length) in HeLa Tet-On cells expressing EN domain; assay: Neutral comet assay, EN domain-only constructs; assay type: cell-based, human; settings: EN domain-only construct, neutral comet assay, normalised to WT
[10] = test system: L1-induced DNA damage in HeLa Tet-On cells (full-length L1); assay: γ-H2AX immunofluorescence assay, full-length L1 constructs; assay type: cell-based, human
[11] = test system: senescent LF1 human diploid fibroblasts (IFN-I and Aging gene sets); assay: RNA-seq / Gene Set Enrichment Analysis of senescent cultures; assay type: cell-based; settings: senescent cultures treated 1 month beginning at 3 months senescence
[12] = test system: L1-induced DNA damage in HeLa Tet-On cells (EN domain only); assay: γ-H2AX immunofluorescence assay, EN domain-only constructs; assay type: cell-based, human
[13] = Figure 4a Graph 3, 50μM, 0μM average 17.91
[14] = [Inhibitor] 5 μM, technical replicates 1-3, Fig. 2b source data, 5 µM
[15] = [Inhibitor] 5 μM, technical replicates 1-3, Fig. 2b source data, read-out: EN activity, percent of no inhibitor control
[16] = [Inhibitor] 25 μM, technical replicates 1-3, Fig. 2b source data, 25 µM
[17] = [Inhibitor] 25 μM, technical replicates 1-3, Fig. 2b source data, read-out: EN activity, percent of no inhibitor control
[18] = [Inhibitor] 50 μM, technical replicates 1-3, Fig. 2b source data, 50 µM
[19] = [Inhibitor] 100 μM, technical replicates 1-3, Fig. 2b source data, 100 µM
[20] = compound at 25 μM, average of 3 replicates
[21] = Figure 4a Graph 1, 25 μM, 0 μM average 9.554

O=C(O)[C@H](CCCCNc1ccc([N+](=O)[O-])cc1[N+](=O)[O-])Nc1ccc([N+](=O)[O-])cc1[N+](=O)[O-] [AD2]
Effect on L1 retrotransposition [1]: did not significantly impact retrotransposition | Binding Detected? (Y/N) [2]: N | EN activity, percent of no inhibitor control ([3]; 2 µM): 97.2065% and 90.9835% and 64.2149% | EN activity, percent of no inhibitor control ([3]; 10 µM): 80.6222% and 62.0824% and 77.8942% | EN activity, percent of no inhibitor control ([3]; 25 µM): 84.9255% and 87.5391% and 75.5295% | EN activity, percent of no inhibitor control ([3]; 50 µM): 66.9257% and 62.5652% and 70.9549% | EN activity, percent of no inhibitor control ([3]; 100 µM): 54.3551% and 40.6401% and 45.1735% | EN activity, percent of no inhibitor control ([3]; 500 µM): 2.482% and 2.582% | EN activity, percent of no inhibitor control ([3]; 1000 µM): -0.01768% and 1.001% and 0.6109% | EN activity, percent of no inhibitor control ([3]; 2000 µM): -4.007% and -5.494% and -4.957% | Inhibition of EN activity in plasmid nicking assay [4]: full inhibition | APE1 activity (%) [5]: 96.2 ± 3.4% | APE1 percent activity, Replicate 1 [5]: 98.5607% | APE1 percent activity, Replicate 2 [5]: 92.3765% | APE1 percent activity, Replicate 3 [5]: 97.7464% | APE1 percent activity, average [5]: 96.2279% | Effect on APE1 activity [5]: inhibited; also recorded: inhibition by the weak APE1 inhibitor AD2 was detected | Percent APE1 activity, average [5]: 66.36% | Percent APE1 activity, replicates [5]: 67.8305% and 52.9447% and 78.2943% | Ki [6]: 13 µM

COc1ccc2c(c1)C(=O)N(CCc1ccc(S(=O)(=O)NC(=O)NC3CCCCC3)cc1)C(=O)C2(C)C [AD12]
MMP3 RT-qPCR, average (EP = 1) ([7]; 50 μM, senescent cells, SEN control 5.499, 3 replicates): 3.608 | IL1β RT-qPCR, average (EP = 1) ([7]; 50 μM, senescent cells, SEN control 8.256, 3 replicates): 8.197 | CCL2 RT-qPCR, average (EP = 1) ([7]; 50 μM, senescent cells, SEN control 8.589, 3 replicates): 4.591 | IFNα RT-qPCR, average (EP = 1) ([7]; 50 μM, senescent cells, SEN control 18.65, 3 replicates): 8.607 | IL6 RT-qPCR, average (EP = 1) ([7]; 50 μM, senescent cells, SEN control 22.45, 3 replicates): 8.334 | Inhibition of inflammation in senescent cells ([7]; treated 1 month): showed efficacy | L1 retrotransposition, average ([1]; 1 μM inhibitor): 17.6477 | L1 retrotransposition, average ([1]; 5 μM inhibitor): 10.1662 | L1 retrotransposition, average ([1]; 10 μM inhibitor): 4.75 | L1 retrotransposition, average ([1]; 25 μM inhibitor): 4.785 | L1 retrotransposition, average ([1]; 50 μM inhibitor): 3.467 | L1 retrotransposition, average ([1]; 100 μM inhibitor): 2.555 | Luciferase (retrotransposition), average [1, 13]: 3.467 | Luciferase (retrotransposition), replicates [1, 13]: 3.679 and 3.508 and 3.347 and 3.332 | Effect on L1 retrotransposition ([1]; HeLa cells): some activity in the retrotransposition assay | Binding Detected? (Y/N) [2]: N | EN activity, percent of no inhibitor control [3, 14]: 77.035% and 74.8653% | remaining activity at 5 µM [3, 15]: 78.7% | EN activity, percent of no inhibitor control [3, 16]: 81.0185% and 81.0517% | remaining activity at 25 µM [3, 17]: 80.7% | EN activity, percent of no inhibitor control [3, 18]: 93.0387% and 96.7449% and 76.3025% | EN activity, percent of no inhibitor control [3, 19]: 74.7453% and 98.1517% and 74.2286% | EN activity, percent of no inhibitor control ([3]; [Inhibitor] 250 μM, technical replicates 1-3, Fig. 2b source data, 250 µM): 79.2639% and 68.0005% | remaining activity at 250 µM ([3]; [Inhibitor] 250 μM, technical replicates 1-3, Fig. 2b source data, read-out: EN activity, percent of no inhibitor control): 61.9% | EN activity, percent of no inhibitor control ([3]; [Inhibitor] 500 μM, technical replicates 1-3, Fig. 2b source data, 500 µM): 55.3249% and 49.2356% | remaining activity at 500 µM ([3]; [Inhibitor] 500 μM, technical replicates 1-3, Fig. 2b source data, read-out: EN activity, percent of no inhibitor control): 62.1% | EN activity, percent of no inhibitor control ([3]; [Inhibitor] 750 μM, technical replicates 1-3, Fig. 2b source data, 750 µM): 29.8392% and 18.9487% | remaining activity at 750 µM ([3]; [Inhibitor] 750 μM, technical replicates 1-3, Fig. 2b source data, read-out: EN activity, percent of no inhibitor control): 18% | EN activity, percent of no inhibitor control ([3]; [Inhibitor] 1000 μM, technical replicates 1-3, Fig. 2b source data, 1000 µM): 13.0331% and 19.9958% | remaining activity at 1000 µM ([3]; [Inhibitor] 1000 μM, technical replicates 1-3, Fig. 2b source data, read-out: EN activity, percent of no inhibitor control): 20.4% | EN activity, percent of no inhibitor control ([3]; [Inhibitor] 1500 μM, technical replicates 1-3, Fig. 2b source data, 1500 µM): 5.3699% and 4.215% | remaining activity at 1500 µM ([3]; [Inhibitor] 1500 μM, technical replicates 1-3, Fig. 2b source data, read-out: EN activity, percent of no inhibitor control): 4.91% | PrestoBlue (viability), average ([8]; 50 μM): 5.992 | Nuclei comet tail length, average (WT = 1) ([9]; 50 μM inhibitor): 0.8544 | Percent APE1 activity, average ([5]; 250 µM, Supplementary Fig. 6b, n=3): 114.2% | Percent APE1 activity, replicates ([5]; 250 µM, Supplementary Fig. 6b, replicates 1-3): 123.394% and 115.312% and 103.88% | APE1 percent activity, Replicate 1 ([5]; compound at 25 μM, Replicate 1): 105.329% | APE1 percent activity, Replicate 2 ([5]; compound at 25 μM, Replicate 2): 115.007% | APE1 percent activity, Replicate 3 ([5]; compound at 25 μM, Replicate 3): 106.871% | APE1 percent activity, average [5, 20]: 109.069% | activity at 25 µM [5]: 109 ± 5.2% | Inhibition of DNA damage, full-length L1 experiments [10]: best inhibition | Expression of IFN-I gene set and aging gene set (RNA-seq, GSEA) [11]: decreased expression

Nn1cnn2c(SCC(=O)Cc3ccc(-c4nc5cc(NC(=O)CSc6nnc7n(N)cnn67)ccc5o4)cc3)nnc12 [AD16]
L1 retrotransposition, average ([1]; 0.5 μM inhibitor): 6.997 | L1 retrotransposition, average ([1]; 1 μM inhibitor): 6.79 | L1 retrotransposition, average ([1]; 5 μM inhibitor): 6.3671 | L1 retrotransposition, average ([1]; 10 μM inhibitor): 6.224 | L1 retrotransposition, average ([1]; 25 μM inhibitor): 5.375 | L1 retrotransposition, average ([1]; 50 μM inhibitor): 4.14 | Luciferase (retrotransposition), average [1, 21]: 3.568 | Luciferase (retrotransposition), replicates [1, 21]: 3.791 and 3.903 and 3.817 and 2.762 | Inhibition of DNA damage, EN domain-only experiments [12]: better efficacy | Binding Detected? (Y/N) [2]: Y | Binding to the oligonucleotide substrate [2]: detectable binding | EN activity, percent of no inhibitor control ([3]; [Inhibitor] 0.2 μM, technical replicates 1-3, Fig. 2b source data, 0.2 µM): 82.0267% and 71.1107% and 113.489% | EN activity, percent of no inhibitor control ([3]; [Inhibitor] 1 μM, technical replicates 1-3, Fig. 2b source data, 1 µM): 95.0279% and 119.352% and 94.1929% | EN activity, percent of no inhibitor control [3, 14]: 53.9202% and 53.7999% | remaining activity at 5 µM [3, 15]: 52.1% | EN activity, percent of no inhibitor control ([3]; [Inhibitor] 10 μM, technical replicates 1-3, Fig. 2b source data, 10 µM): 8.722% and 8.848% | remaining activity at 10 µM ([3]; [Inhibitor] 10 μM, technical replicates 1-3, Fig. 2b source data, read-out: EN activity, percent of no inhibitor control): 9.85% | EN activity, percent of no inhibitor control [3, 16]: 4.539% and 2.3611% | remaining activity at 25 µM [3, 17]: 3.82% | EN activity, percent of no inhibitor control [3, 18]: 5.5014% and 3.599% | remaining activity at 50 µM ([3]; [Inhibitor] 50 μM, technical replicates 1-3, Fig. 2b source data, read-out: EN activity, percent of no inhibitor control): 5.19% | EN activity, percent of no inhibitor control [3, 19]: 3.629% and 2.352% | remaining activity at 100 µM ([3]; [Inhibitor] 100 μM, technical replicates 1-3, Fig. 2b source data, read-out: EN activity, percent of no inhibitor control): 2.31% | PrestoBlue (viability), average ([8]; 25 μM): 13.01 | Nuclei comet tail length, average (WT = 1) ([9]; 25 μM inhibitor): 0.5888 | APE1 percent activity, Replicate 1 ([5]; compound at 25 μM, Replicate 1): 93.7909% | APE1 percent activity, Replicate 2 ([5]; compound at 25 μM, Replicate 2): 100.33% | APE1 percent activity, Replicate 3 ([5]; compound at 25 μM, Replicate 3): 92.4773% | APE1 percent activity, average [5, 20]: 95.5327% | activity at 25 µM [5]: 95.5 ± 4.2%
